From ChEMBL document CHEMBL3112474, “Discovery of substituted lactams as novel dual orexin receptor antagonists. Synthesis, preliminary structure-activity relationship studies and efforts towards improved metabolic stability and pharmacokinetic properties. Part 1” (Bioorg Med Chem Lett, 2014)

Columns and labels:
[1] = Intrinsic clearance in human liver microsomes at 1 uM; type: ADME; conditions: read-out: CLH
[2] = target: T1, Orexin/Hypocretin receptor type 1 (Homo sapiens, UniProt O43613); test: Antagonist activity at human orexin 1 receptor expressed in CHO cells assessed as inhibition of orexin-A-induced calcium mobilization by FLIPR assay; type: functional, cell-based
T1 sequence (O43613 whole entry): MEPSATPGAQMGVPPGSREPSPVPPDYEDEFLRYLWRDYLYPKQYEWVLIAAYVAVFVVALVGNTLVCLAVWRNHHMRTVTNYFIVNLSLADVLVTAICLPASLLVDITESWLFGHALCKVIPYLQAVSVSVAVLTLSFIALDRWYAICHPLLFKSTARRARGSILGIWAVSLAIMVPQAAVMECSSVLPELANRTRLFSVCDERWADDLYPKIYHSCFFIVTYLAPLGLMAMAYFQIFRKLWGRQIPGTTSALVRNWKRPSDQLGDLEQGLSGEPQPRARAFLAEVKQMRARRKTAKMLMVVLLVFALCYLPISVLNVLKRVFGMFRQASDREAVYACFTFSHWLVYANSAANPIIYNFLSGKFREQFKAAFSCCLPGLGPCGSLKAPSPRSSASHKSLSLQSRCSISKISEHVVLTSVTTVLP

Orexin receptor type 2 = target: T2, Orexin receptor type 2 (Homo sapiens, UniProt O43614); test: Antagonist activity at human orexin 2 receptor expressed in CHO cells assessed as inhibition of orexin-A-induced calcium mobilization by FLIPR assay; type: functional, cell-based
T2 sequence (O43614 whole entry): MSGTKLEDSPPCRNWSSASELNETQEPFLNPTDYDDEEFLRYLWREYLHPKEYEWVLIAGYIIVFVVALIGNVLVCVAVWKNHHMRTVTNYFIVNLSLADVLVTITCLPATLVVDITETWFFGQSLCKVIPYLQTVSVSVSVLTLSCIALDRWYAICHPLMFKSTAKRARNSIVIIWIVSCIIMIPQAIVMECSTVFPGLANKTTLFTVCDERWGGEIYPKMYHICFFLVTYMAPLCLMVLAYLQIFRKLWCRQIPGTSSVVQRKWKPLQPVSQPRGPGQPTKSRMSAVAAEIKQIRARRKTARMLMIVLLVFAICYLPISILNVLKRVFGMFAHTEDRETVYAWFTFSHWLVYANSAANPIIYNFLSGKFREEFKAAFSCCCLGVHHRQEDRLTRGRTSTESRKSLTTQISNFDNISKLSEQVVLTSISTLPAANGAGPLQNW

[3] = Half life in human liver microsomes; type: ADME
[4] = Drug level in Wistar rat brain at 100 mg/kg, po after 3 hrs; type: ADME, organism-based; set-up: dose 100 mg/kg, route oral; conditions: read-out: Drug uptake
[5] = Ratio of drug level in brain to plasma in Wistar rat at 100 mg/kg, po after 3 hrs; type: ADME, organism-based; set-up: dose 100 mg/kg, route oral; conditions: read-out: BPR
[6] = Plasma concentration in Wistar rat at 100 mg/kg, po after 3 hrs; type: ADME, organism-based; set-up: dose 100 mg/kg, route oral
Cytochrome P450 3A4 = Cytochrome P450 3A4 (Homo sapiens, UniProt P08684); test: Inhibition of CYP3A4 (unknown origin); type: ADME
Sequence of Cytochrome P450 3A4 (P08684 whole entry): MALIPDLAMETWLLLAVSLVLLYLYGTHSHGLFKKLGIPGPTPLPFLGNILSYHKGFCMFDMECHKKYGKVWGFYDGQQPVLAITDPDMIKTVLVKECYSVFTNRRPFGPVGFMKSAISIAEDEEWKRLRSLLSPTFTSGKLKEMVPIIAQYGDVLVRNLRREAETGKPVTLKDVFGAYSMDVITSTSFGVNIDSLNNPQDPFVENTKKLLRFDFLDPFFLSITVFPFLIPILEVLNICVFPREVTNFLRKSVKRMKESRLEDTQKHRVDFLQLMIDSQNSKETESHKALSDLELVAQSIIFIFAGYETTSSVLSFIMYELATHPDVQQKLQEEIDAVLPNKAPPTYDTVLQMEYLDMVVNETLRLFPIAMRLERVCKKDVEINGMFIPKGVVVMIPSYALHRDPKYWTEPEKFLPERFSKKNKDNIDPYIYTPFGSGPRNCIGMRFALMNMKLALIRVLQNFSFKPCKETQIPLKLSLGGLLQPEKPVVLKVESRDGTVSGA

Cytochrome P450 2C9 = Cytochrome P450 2C9 (Homo sapiens, UniProt P11712); test: Inhibition of CYP2C9 (unknown origin); type: ADME
Sequence of Cytochrome P450 2C9 (P11712 whole entry): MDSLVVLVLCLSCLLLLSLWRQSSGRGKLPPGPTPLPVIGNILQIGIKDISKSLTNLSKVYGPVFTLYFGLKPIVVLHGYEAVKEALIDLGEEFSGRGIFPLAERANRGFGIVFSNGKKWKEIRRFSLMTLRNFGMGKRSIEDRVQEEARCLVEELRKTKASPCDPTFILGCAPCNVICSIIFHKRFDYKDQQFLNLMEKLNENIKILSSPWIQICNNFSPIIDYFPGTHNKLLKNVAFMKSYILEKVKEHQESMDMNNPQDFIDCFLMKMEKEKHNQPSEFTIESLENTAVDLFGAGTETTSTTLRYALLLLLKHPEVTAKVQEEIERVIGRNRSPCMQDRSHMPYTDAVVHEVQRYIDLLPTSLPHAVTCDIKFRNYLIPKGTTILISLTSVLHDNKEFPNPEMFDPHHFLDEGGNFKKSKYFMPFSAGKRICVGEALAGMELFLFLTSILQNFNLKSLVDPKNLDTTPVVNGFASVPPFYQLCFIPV

Cytochrome P450 2D6 = Cytochrome P450 2D6 (Homo sapiens, UniProt P10635); test: Inhibition of CYP2D6 (unknown origin); type: ADME
Sequence of Cytochrome P450 2D6 (P10635 whole entry): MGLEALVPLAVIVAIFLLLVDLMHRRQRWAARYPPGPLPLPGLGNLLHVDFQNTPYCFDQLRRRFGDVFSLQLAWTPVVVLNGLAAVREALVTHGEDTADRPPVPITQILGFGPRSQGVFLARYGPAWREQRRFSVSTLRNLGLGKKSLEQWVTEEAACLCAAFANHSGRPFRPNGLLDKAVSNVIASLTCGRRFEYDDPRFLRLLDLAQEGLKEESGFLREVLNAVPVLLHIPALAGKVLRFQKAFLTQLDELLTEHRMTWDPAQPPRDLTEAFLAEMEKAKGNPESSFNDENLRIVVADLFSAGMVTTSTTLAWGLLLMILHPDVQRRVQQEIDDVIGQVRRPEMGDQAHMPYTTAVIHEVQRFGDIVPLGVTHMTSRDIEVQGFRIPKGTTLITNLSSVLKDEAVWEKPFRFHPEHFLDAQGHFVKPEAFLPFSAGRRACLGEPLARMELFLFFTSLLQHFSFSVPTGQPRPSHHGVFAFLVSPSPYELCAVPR

MDR1 [7] = test: Apparent passive permeability across basolateral to apical side in MDCK cells expressing human MDR1; type: ADME, cell-based, Canis lupus familiaris; conditions: dog
[8] = Intrinsic clearance in rat liver microsomes at 1 uM; type: ADME; conditions: read-out: CLH
Cerebrospinal fluid = test: Drug level in Wistar rat cerebrospinal fluid at 100 mg/kg, po; type: ADME, organism-based; set-up: dose 100 mg/kg, route oral; conditions: in vivo
MDR1 [9] = test: Apparent passive permeability across apical to basolateral side in MDCK cells expressing human MDR1; type: ADME, cell-based, Canis lupus familiaris; conditions: dog

Compound | microsomal CLint at 1 µM [1] | IC50 [2] | IC50 (Orexin receptor type 2) | also measured
COc1cccc(OC)c1C1CCCC(=O)N1Cc1cccc(-c2ncccn2)c1 (configuration not stated) | > 1250 µL/min/mg |  |  | 
COc1cccc(OC)c1C1CCCC(=O)N1C(C)c1ccc(OC(F)(F)F)cc1 (mixture of isomers) | > 1250 µL/min/mg | 142 nM | 21 nM | 
COc1cccc(OC)c1C1CCC(C)C(=O)N1Cc1ccc(OC(F)(F)F)cc1 (mixture of isomers) | 649 µL/min/mg |  |  | 
COc1cccc(OC)c1C1CC(C)CC(=O)N1Cc1ccc(OC(F)(F)F)cc1 (mixture of isomers) | 645 µL/min/mg |  |  | 
COc1cccc(OC)c1C1C2CC2C(=O)N1Cc1ccc(OC(F)(F)F)cc1 (mixture of isomers) |  | 1150 nM | 1070 nM | 
COc1cccc(OC)c1C1CC(C)C(=O)N1Cc1ccc2oc3ccccc3c2c1 (mixture of isomers) | 260 µL/min/mg | 4 nM | 9 nM | 
COc1cccc(OC)c1C1CC(C)C(=O)N1Cc1ccc2sc(C)nc2c1 (mixture of isomers) | 88 µL/min/mg |  |  | 
COc1cc(OC)c(C2CCCCN2Cc2ccc(OC(F)(F)F)cc2)c(OC)c1 (racemic) |  | 1590 nM | > 10000 nM | 
COc1cccc(OC)c1C1CCCC(=O)N1Cc1ccc2ccccc2n1 (racemic) |  | 49 nM |  | 
COc1cccc(F)c1C1CCCC(=O)N1Cc1ccc(OC(F)(F)F)cc1 (racemic) |  |  | 161 nM | 
COc1cccc(OC)c1C1CCCC(=O)N1Cc1ccccc1 (racemic) |  | 2420 nM | 416 nM | 
COc1cccc(OC)c1C1CCCC(=O)N1c1ccccc1 (racemic) |  | > 10000 nM | > 10000 nM | 
COc1cccc(OC)c1C1CCCC(=O)N1CCc1ccccc1 (racemic) |  | 9700 nM | 1330 nM | 
COc1cccc(OC)c1C1CCCC(=O)N1Cc1ccc(Oc2ccccc2)cc1 (racemic) |  | 531 nM | 29 nM | 
COc1cccc(OC)c1C1CCCC(=O)N1Cc1cccc(-c2ccccc2)c1 (racemic) | > 1250 µL/min/mg | 65 nM | 28 nM | 
COc1cccc(OC)c1C1CCCC(=O)N1Cc1ccc2ccccc2c1 (racemic) | > 1250 µL/min/mg |  |  | half-life [3]: < 1 min
COc1cccc(OC)c1C1CCCC(=O)N1Cc1cnc2ccccc2c1 (racemic) |  | 675 nM | 217 nM | 
COc1cccc(OC)c1C1CCCC(=O)N1Cc1ccc2sc(C)nc2c1 (racemic) | 860 µL/min/mg | 32 nM | 12 nM | 
COc1cccc(OC)c1C1CCCC(=O)N1Cc1ccc2oc3ccccc3c2c1 (racemic) | 1200 µL/min/mg |  |  | 
COc1cccc(OC)c1C1CCCC(=O)N1Cc1cccc(-c2ccccc2)n1 (racemic) | > 1250 µL/min/mg |  |  | 

Compound | microsomal CLint at 1 µM [1] | IC50 [2] | IC50 (Orexin receptor type 2) | also measured
COc1cccc(OC)c1C1CCCC(=O)N1Cc1ccnc(-c2ccccc2)c1 (racemic) | > 1250 µL/min/mg |  |  | 
COc1cccc(OC)c1C1CCCC(=O)N1Cc1cccc(-c2ccccn2)c1 (racemic) | > 1250 µL/min/mg |  |  | 
COc1cccc(OC)c1C1CCCC(=O)N1Cc1cccc(-c2csc(C)n2)c1 (racemic) | > 1250 µL/min/mg |  |  | 
COc1cccc(OC)c1C1CCCC(=O)N1Cc1cccc(-n2nccn2)c1 (racemic) | > 1250 µL/min/mg |  |  | 
COc1cccc(OC)c1C1CCCC(=O)N1Cc1ccnc(-c2nccs2)c1 (racemic) | > 1250 µL/min/mg |  |  | 
COc1cccc(OC)c1C1CCCC(=O)N1Cc1ccnc(-n2cccn2)c1 (racemic) | > 1250 µL/min/mg |  |  | 
COc1cccc(OC)c1C1CCCC(=O)N1Cc1csc(-c2ccccc2)n1 (racemic) | > 1250 µL/min/mg | 45 nM | 6 nM | 
COc1ccnc(OC)c1C1CCCC(=O)N1Cc1ccc2oc3ccccc3c2c1 (racemic) | 1130 µL/min/mg |  |  | 
COc1ccnc(OC)c1C1CCCC(=O)N1Cc1csc(-c2ccccc2)n1 (racemic) | 912 µL/min/mg |  |  | 
COc1ccc2nc(C)oc2c1C1CCCC(=O)N1Cc1cccc(-c2ccccc2)c1 (racemic) | > 1250 µL/min/mg | 54 nM | 93 nM | 
COc1ccc2nc(C)oc2c1C1CCCC(=O)N1Cc1cccc(-c2csc(C)n2)c1 (racemic) | > 1250 µL/min/mg | 17 nM | 65 nM | 
COc1cccc(OC)c1C1COCC(=O)N1Cc1ccc(OC(F)(F)F)cc1 (racemic) | > 1250 µL/min/mg |  |  | 
COc1cccc(OC)c1[C@H]1C[C@H](C)C(=O)N1Cc1ccc(OC(F)(F)F)cc1 (racemic) | 257 µL/min/mg |  |  | 
COc1cccc(OC)c1C1COC(=O)N1Cc1ccc(OC(F)(F)F)cc1 (racemic) |  | 2650 nM | 771 nM | 
COc1cccc(OC)c1C1c2ccccc2C(=O)N1Cc1ccc(OC(F)(F)F)cc1 (racemic) |  | > 10000 nM | > 10000 nM | 
COc1cccc(OC)c1C1SCC(=O)N1Cc1ccc(OC(F)(F)F)cc1 (racemic) |  | 155 nM | 16 nM | 
COc1cccc(OC)c1C1CCC(=O)N1Cc1ccc(OC(F)(F)F)cc1 (racemic) | 670 µL/min/mg |  |  | 
COc1cccc(OC)c1C1CCCC(=O)N1Cc1ccc(OC(F)(F)F)cc1 (racemic) | > 1250 µL/min/mg | 284 nM | 25 nM | concentration at 3 h [4]: 153 ng/g; Kp at 3 h [5]: 1.6; concentration at 3 h [6]: 94 ng/mL
COc1cccc(OC)c1C1CCCCC(=O)N1Cc1ccc(OC(F)(F)F)cc1 (racemic) | > 1250 µL/min/mg | 264 nM | 74 nM | 
COc1cccc(OC)c1C1CCCC(=O)N1Cc1ccc2ccccc2n1 (single isomer, unassigned) | > 1250 µL/min/mg |  |  | IC50 (Cytochrome P450 3A4): > 30000 nM; IC50 (Cytochrome P450 2C9): > 30000 nM; IC50 (Cytochrome P450 2D6): > 30000 nM; concentration at 3 h [4]: 108 ng/g; Papp B→A (MDR1 [7]): 63.2 ×10⁻⁶ cm/s; microsomal CLint at 1 µM [8]: > 1250 µL/min/mg; Drug uptake (Cerebrospinal fluid): 23 ng/mL; Papp A→B (MDR1 [9]): 24.2 ×10⁻⁶ cm/s; Kp at 3 h [5]: 0.8; concentration at 3 h [6]: 140 ng/mL
